Legend:
[1] = Minimum cellular toxicity against the HIV strain IIIB in CEM cells was determined; assay type: cell-based, CCRF-CEM; conditions: human, read-out: TD50 (the source's name)
[2] = system: CCRF-CEM; assay: Concentration required to inhibit against HIV strain IIIB in CEM cell; assay type: functional; conditions: Homo sapiens, read-out: ED50 (the source's name)

EC50 [2] [nM]	Compound	CC50 [1] [nM]
33	Cc1c(O)cccc1C(=O)N[C@@H](Cc1ccccc1)[C@H](O)CN1C[C@H]2CCCC[C@H]2C[C@H]1C(=O)NC(C)(C)C	> 5000
970	Cc1c(O)cccc1C(=O)N[C@@H](CSc1ccc2ccccc2c1)[C@H](O)Cc1ccccc1C(=O)NC(C)(C)C	

Reference: ChEMBL document CHEMBL1130253 (J Med Chem, 1997)
